{"source": "ChEMBL document CHEMBL1134788", "about": "“Oxindole derivatives as orally active potent growth hormone secretagogues” (J Med Chem, 2001)"}
{"species_on_record": "Rattus norvegicus", "test": "In vitro growth hormone releasing activity was measured in rat pituitary cells", "type": "functional, cell-based", "details": "Pituitary gland cell", "units": {"EC50": "nM"}}
{"smiles": "CCN(CC)CCN1C(=O)C(O)(c2ccc3ccccc3c2)c2c1cc(C#CCO)cc2C(F)(F)F", "note": "(centres undefined)", "EC50": 310}
{"smiles": "CCN(CC)CCN1C(=O)C(O)(c2ccc3ccccc3c2)c2c(C#CCO)cc(Cl)cc21", "note": "(centres undefined)", "EC50": "> 1000"}
{"smiles": "CCN(CC)CCN1C(=O)C(O)(c2ccc3ccccc3c2)c2cc(Br)ccc21", "note": "(centres undefined)", "EC50": "> 1000"}
{"smiles": "CCN(CC)CCN1C(=O)C(O)(c2ccc3ccccc3c2)c2c(Br)cccc21", "note": "(centres undefined)", "EC50": 77}
{"smiles": "CCN(CC)CCN1C(=O)C(O)(c2ccc3ccccc3c2)c2cccc(Br)c21", "note": "(centres undefined)", "EC50": "> 1000"}
{"smiles": "CCN(CC)CCN1C(=O)C(O)(c2ccc3ccccc3c2)c2ccc(Br)cc21", "note": "(centres undefined)", "EC50": 380}
{"smiles": "CCN(CC)CCN1C(=O)C(O)(c2ccc3ccccc3c2)c2ccccc21", "note": "(centres undefined)", "EC50": "> 1000"}
{"smiles": "CCN(CC)CCN1C(=O)C(O)(c2ccc3ccccc3c2)c2c(Cl)cc(C#CCO)cc21", "note": "(centres undefined)", "EC50": 310}
{"smiles": "CCN(CC)CCN1C(=O)[C@](O)(c2cc3ccccc3cc2Cl)c2c1cc(C(N)=O)cc2C(F)(F)F", "EC50": 210}
{"smiles": "CCN(CC)CCN1C(=O)C(O)(c2ccc3ccccc3c2)c2c1cc(C#CCCC(=O)N1CCOCC1)cc2C(F)(F)F", "note": "(centres undefined)", "EC50": 30}
{"smiles": "CCN(CC)CCN1C(=O)C(O)(c2ccc3ccccc3c2)c2c1cc(C(N)=O)cc2C(F)(F)F", "note": "(centres undefined)", "EC50": 18}
{"smiles": "CCN(CC)CCN1C(=O)C(O)(c2ccc3ccccc3c2)c2c1cc(C#CCCC(N)=O)cc2C(F)(F)F", "note": "(centres undefined)", "EC50": 30}
{"smiles": "CCN(CC)CCN1C(=O)[C@@](O)(c2cc3ccccc3cc2Cl)c2c1cc(C(N)=O)cc2C(F)(F)F", "EC50": 3}
{"smiles": "CCN(CC)CCN1C(=O)C(O)(c2cc3ccccc3cc2Cl)c2c1cc(C(N)=O)cc2C(F)(F)F", "note": "(centres undefined)", "EC50": 3.5}
